Experimental findings from ChEMBL document CHEMBL3400129, “Novel hybrid nocodazole analogues as tubulin polymerization inhibitors and their antiproliferative activity” (Bioorg Med Chem Lett, 2015) are described below.

The subject of assay [1] is A549. Put plainly: Cytotoxicity against human A549 cells. Type of assay: functional, cell-based.
Assay [2] has as its target Tubulin. Put plainly: Inhibition of tubulin polymerization (unknown origin). Type of assay: protein-complex assay, Homo sapiens.
Assay [3] has as its target Tubulin (Homo sapiens) (UniProt P68371+Q9H4B7+P0DPH7+P68366+Q13509+Q71U36+P04350+Q3ZCM7+P07437+P68363+Q9BQE3+Q6PEY2+Q13885+Q9BVA1+Q9BUF5). Put plainly: Displacement of [3H]colchicine from tubulin (unknown origin) at 5 uM. The format is protein-complex assay. A general note: Displacement assays read how much labelled ligand stays bound in the presence of the test substance.

SMILES strings stand for the structures.

With `COC(=O)Nc1nc2ccc(/C=C\c3cc(OC)c(OC)c(OC)c3)cc2[nH]1`, the results for the concentration for half-maximal inhibition (IC50) in assay [1] and in assay [2] were 12 µM and 1.6 µM, respectively. Further, in assay [3], the inhibition was 39%.

For `COC(=O)Nc1nc2ccc(C(=O)c3sccc3O)cc2[nH]1`, the IC50 is 6 µM in assay [1] and 2 µM in assay [2]. This compound also showed an inhibition in assay [3] of 56%.

Turning to `COC(=O)Nc1nc2ccc(C(=O)c3ccc(OC)cc3O)cc2[nH]1`, the results for the IC50 in assay [1] and in assay [2] were more than 100 µM and 2.2 µM, respectively. This compound came in with an inhibition in assay [3] of 38%.

With `COC(=O)Nc1nc2ccc(C(=O)c3ccc(O)cc3O)cc2[nH]1`, the figures for the IC50 in assay [1] and in assay [2] were more than 100 µM and more than 20 µM, respectively.

A word on the IC50: it is the concentration that inhibits the measured activity by half. Low readings indicate greater potency, high ones weaker potency. The term inhibition denotes the change of the read-out against control, counted positive when it falls. The low end stands for a weak effect, the high end for a strong effect.
